Results on seven compounds are retold here after ChEMBL document CHEMBL1759896, “Asymmetric total synthesis of (+)- and (-)-clusianone and (+)- and (-)-clusianone methyl enol ether via ACC alkylation and evaluation of their anti-HIV activity” (Bioorg Med Chem Lett, 2011).

What all share (assay type): functional, organism-based
Assay [1] concerns Human immunodeficiency virus 1. The experiment in a line: Antiviral activity against HIV1 Env-pseudovirus infected in human Jurkat E6-1 cells after 2 days by luciferase assay. Particulars: for pIC50: Human immunodeficiency virus 1, Jurkat, 48 h.
For assay [2], the system named is Human immunodeficiency virus 1. The experiment in a line: Antiviral activity against HIV1 Env-pseudovirus infected in mouse 3T3.T4.CCR5 cells after 2 days by luciferase assay. As to conditions: for pIC50: read-out: IC50.
The test system of assay [3] is Human immunodeficiency virus 1. The experiment in a line: Antiviral activity against HIV1 MN infected in human C8166 cells. As to conditions: Human immunodeficiency virus 1, MN.

pEC50, pIC50: −log10 of the molar value. The source made the active and inactive calls. The calls are words filed in the database; no cut-off is given here.

By pIC50 is commonly meant −log10 of the IC50, conventionally taken in molar units. In assay [1], `Cc1ccnc2c1NC(=O)c1cccnc1N2C1CC1` [NEVIRAPINE] gave a pIC50 of 7.40.

Take `CC(C)=CC[C@H]1C[C@]2(CC=C(C)C)C(=O)[C@@](CC=C(C)C)(C(=O)C(C(=O)c3ccccc3)=C2O)C1(C)C` (stereo in doubt; 2) [6-EPI-CLUSIANONE]: the pIC50 in assay [2] (3t3.t4.ccr5) is 5.95.

For `CC(C)=CC[C@H]1C[C@]2(CC=C(C)C)C(=O)[C@@](CC=C(C)C)(C(=O)C(C(=O)c3ccccc3)=C2O)C1(C)C` (stereo in doubt; 2), in assay [1], the result was Active. One may read the pEC50 as the negative decadic logarithm of the EC50, by convention in mol/L. High values mean a small EC50, low ones a large EC50. In turn, `CC(C)=CC[C@H]1C[C@]2(CC=C(C)C)C(=O)[C@@](CC=C(C)C)(C(=O)C(C(=O)c3ccccc3)=C2O)C1(C)C` (stereo in doubt; 1) [6-EPI-CLUSIANONE] showed a pEC50 in assay [3] of 7.70. The pIC50 in assay [2] (Human immunodeficiency virus 1, 3T3.T4.CCR5, 48 h) was 5.82. As for `CC(C)=CC[C@H]1C[C@]2(CC=C(C)C)C(=O)[C@@](CC=C(C)C)(C(=O)C(C(=O)c3ccccc3)=C2O)C1(C)C` (stereo in doubt; 1), the outcome in assay [1] was Active. Turning to `Cc1cn([C@H]2C[C@H](N=[N+]=[N-])[C@@H](CO)O2)c(=O)[nH]c1=O` [ZIDOVUDINE], in assay [1], the pIC50 is 6.92. As for `COC1=C(C(=O)c2ccccc2)C(=O)[C@]2(CC=C(C)C)C[C@H](CC=C(C)C)C(C)(C)C1(CC=C(C)C)C2=O`, in assay [2] (3t3.t4.ccr5), the IC50 entry is on record as “Not Active”.
